Reference: patent EP1439177B1, “Antiviral activity and resolution of 2-hydroxymethyl-5-(5-fluorocytosin-1-yl)-1,3-oxathiolane” (Emory University, priority 1991, dated 1992)
pEC50: −log10 of the molar value. Where “and” joins values, the source holds several entries; their conditions need not be identical. Equal entries are not always repeated. Where two headings read alike, the source gives them in different places.

Columns and labels:
HIV-1 (strain LAV) = test: microbe, parasite or virus in culture; format: cell-based; conditions: Human immunodeficiency virus 1, PBMC; for inhibition at 0.001 µM / inhibition at 0.005 µM / inhibition at 0.01 µM / inhibition at 0.05 µM / inhibition at 0.1 µM / inhibition at 0.5 µM: read-out: % Inhibition (Corrected); for EC50: read-out: EC50:µM
Source text: It is often desirable to screen a number of racemic mixtures of nucleosides as a preliminary step to determine which warrant further resolution into enantiomerically enriched components and further evaluation of antiviral activity. The ability of nucleosides to inhibit HIV can be measured by various experimental techniques. The technique used herein, and described in detail below, measures the inhibition of viral replication in phytohemagglutinin (PHA) stimulated human peripheral blood mononuclear (PBM) cells infected with HIV-1 (strain LAV). The amount of virus produced is determined by measuring the virus-coded reverse transcriptase enzyme. The amount of enzyme produced is proportional to the amount of virus produced.
• A. Three-day-old phytohemagglutinin-stimulated PBM cells (10^6 cells/ml) from hepatitis B and HIV-1 seronegative healthy donors were infected with HIV-1 (strain LAV) at a concentration of about 100 times the 50% tissue culture infectious dose (TICD 50) per ml and cultured in the presence and absence of various concentrations of antiviral compounds. • B. Approximately one hour after infection, the medium, with the compound to be tested (2 times the final concentration in medium) or without compound, was added to the flasks (5 ml; final volume 10 ml). AZT was used as a positive control. • C. The cells were exposed to the virus (about 2 x 10^5 dpm/ml, as determined by reverse transcriptase assay) and then placed in a CO2 incubator. HIV-1 (strain LAV) was obtained from the Center for Disease Control, Atlanta, Georgia. The methods used for culturing the PBM cells, harvesting the virus and determining the reverse transcriptase activity were those described by McDougal et al. (J. Immun. Meth. 76, 171-183, 1985) and Spira et al. (J. Clin. Meth. 25, 97-99, 1987), except that fungizone was not included in the medium (see Schinazi, et al., Antimicrob. Agents Chemother. 32, 1784-1787 (1988); Id., 34:1061-1067 (1990)). • D. On day 6, the cells and supernatant were transferred to a 15 ml tube and centrifuged at about 900 g for 10 minutes. Five ml of supernatant were removed and the virus was concentrated by centrifugation at 40,000 rpm for 30 minutes (Beckman 70.1 Ti rotor). The solubilized virus pellet was processed for determination of the levels of reverse transcriptase. Results are expressed in dpm/ml of sampled supernatant. Virus from smaller volumes of supernatant (1 ml) can also be concentrated by centrifugation prior to solubilization and determination of reverse transcriptase levels.

[1] = tested on: uninfected human PBM cells; test: Growth inhibition of mitogen-stimulated uninfected human PBM cells, trypan blue exclusion; format: cell-based; conditions: uninfected human PBM cells, 6 days; error estimated at ±10%; read-out: Cytotoxicity IC50
2.2.15 cells = test: Toxicity analysis in 2.2.15 cells, neutral red dye uptake; format: cell-based, human; conditions: 330 µM
Procedure: (§1) Toxicity analyses were performed to assess whether any observed antiviral effects were due to a general effect on cell viability. The method used herein was the measurement of the uptake of neutral red dye, a standard and widely used assay for cell viability in a variety of virus-host systems, including HSV and HIV. Toxicity analyses were performed in 96-well flat bottomed tissue culture plates. Cells for the toxicity analyses were cultured and treated with test compounds with the same schedule as described for the antiviral evaluations below. Each compound was tested at 4 concentrations, each in triplicate cultures (wells "A", "B", and "C"). Uptake of neutral red dye was used to determine the relative level of toxicity. The absorbance of internalized dye at 510 nm (Asin) was used for the quantitative analysis. Values are presented as a percentage of the average Asin values in 9 separate cultures of untreated cells maintained on the same 96-well plate as the test compounds. Dye uptake in the 9 control cultures on plate 5 ranged from 91.6% to 110.4%, and on plate 6 from 96.6% to 109%.

[2] = as above; format: cell-based, human; conditions: human, 2.2.15 cells
Procedure: as §1

[3] = Growth inhibition of mitogen-stimulated uninfected human PBM cells, trypan blue exclusion; format: cell-based; conditions: human, pbm cells
[4] = tested on: granulocyte-macrophage precursor cells; conditions: compared with the (+)-enantiomer and AZT; Figure 12
HIV-2 = test: microbe, parasite or virus in culture; conditions: Human immunodeficiency virus 2, PBMC
Procedure: Cell lines were obtained from either human donors, AIDS Research and Reference Reagent Program, NIH, Rockville, Maryland, ATCC, or the Red Cross. The CEM thymidine kinase deficient cells were prepared by sequential passage of CEM cells in the presence of 5-bromo-2'-deoxyuridine.

HBV = conditions: for INT[…] DNA RI: HBV DNA replication intermediates; for inhibition of the replication of HBV: at the tested levels (Table 7, 10 µM)
Procedure: A summary and description of the assay for antiviral effects in this culture system and the analysis of HBV DNA has been described (Korba and Milman, 1991, Antiviral Res., 15:217). The antiviral evaluations were performed on two separate passages of cells. All wells, in all plates, were seeded at the same density and at the same time.
Due to the inherent variations in the levels of both intracellular and extracellular HBV DNA, only depressions greater than 3.5-fold (for HBV virion DNA) or 3.0-fold (for HBV DNA replication intermediates) from the average levels for these HBV DNA forms in untreated cells are considered to be statistically significant [P<0.05]. The levels of integrated HBV DNA in each cellular DNA preparation (which remain constant on a per cell basis in these experiments) were used to calculate the levels of intracellular HBV DNA forms, thereby ensuring that equal amounts of cellular DNA were compared between separate samples.

HIV = test: microbe, parasite or virus in culture; format: cell-based; conditions: Human immunodeficiency virus 1; MT4 system
[5] = read-out: DYE UPTAKE (% OF CONTROL) WELL A
[6] = read-out: DYE UPTAKE (% OF CONTROL) WELL C
[7] = read-out: DYE UPTAKE (% OF CONTROL) WELLB

For CC(=O)Nc1nc(=O)n([C@@H]2CS[C@H](CO)O2)cc1F (racemic) [N^4-acetyl derivative of (±)-FTC], the pEC50 (HIV-1 (strain LAV)) was 8.55.
For Cc1cn(C2CSC(CO)O2)c(=O)[nH]c1=O (stereo not shown) [DLS-010], the CC50 [1] was > 100 µM.
With Nc1nc(=O)n([C@H]2CS[C@@H](CO)O2)cc1Cl [DLS-023] the CC50 [1] was > 100 µM.
With Cc1cn([C@H]2CS[C@@H](CO)O2)c(=O)nc1N [DLS-011] the CC50 [1] was > 100 µM.
In the case of Nc1nc(=O)n([C@@H]2CS[C@H](CO)O2)cc1F (single isomer, unassigned) [(-)-FTC, (-)-β-L-2-hydroxymthyl-5-(5-fluorocytosin-1-yl)-1,3-oxathiolane], the “toxicity at the highest concentration used for the toxicity tests” value (2.2.15 cells) was “appeared to be toxic”, the viability at 10 µM [2, 5] was 94.3% and the viability at 10 µM [2, 6] was 92.2%. It also gave a viability at 10 µM [2, 7] of 94.9%, a viability at 30 µM [2, 5] of 98.7% and a viability at 30 µM [2, 6] of 96.4%. For the same compound, the viability at 30 µM [2, 7] was 94.3%, the viability at 100 µM [2, 5] was 64.1% and the viability at 100 µM [2, 6] was 77.6%. For the same compound, the viability at 100 µM [2, 7] was 66.6%, the viability at 300 µM [2, 5] was 53% and the viability at 300 µM [2, 6] was 51.5%. The viability at 300 µM [2, 7] was 51.1%, the CC50 at 144 h [3] was > 100 µM and the “toxicity (IC50) on colony formation” value [4] was “less toxic”. It also gave an inhibition at 0.001 µM (HIV-1 (strain LAV)) of 23.8%, an inhibition at 0.005 µM (HIV-1 (strain LAV)) of 43.3% and an inhibition at 0.01 µM (HIV-1 (strain LAV)) of 24.8%. The inhibition at 0.05 µM (HIV-1 (strain LAV)) was 76.2%, the inhibition at 0.1 µM (HIV-1 (strain LAV)) was 93.5% and the inhibition at 0.5 µM (HIV-1 (strain LAV)) was 97.6%. For the same compound, the pEC50 (HIV-1 (strain LAV); read-out: Antiviral EC50) was 8.10, the pEC50 (HIV-1 (strain LAV); read-out: EC50) was 8.11 and the EC50 (HIV-1 (strain LAV)) was 0.02 µM. The pEC50 (HIV-2) was 9.15, the “HBV VIRION DNA DAY 0” value (HBV; 0.25 µM, replicate wells) was 89 pg/ml CULTURE MEDIUM and the “HBV VIRION DNA DAY 4” value (HBV; 0.25 µM, replicate wells) was 15 pg/ml CULTURE MEDIUM. The “INT[…] DNA RI” value (HBV; 1 µM, 24 hours following the 9th day of treatment) was 2 pg/µg CELL DNA and 3 pg/µg CELL DNA and 4 pg/µg CELL DNA, the “HBV VIRION DNA DAY 0” value (HBV; 1 µM, replicate wells) was 89 pg/ml CULTURE MEDIUM and the “HBV VIRION DNA DAY 4” value (HBV; 1 µM, replicate wells) was 15 pg/ml CULTURE MEDIUM and 22 pg/ml CULTURE MEDIUM. The “INT[…] DNA MONO.” value (HBV; 1 µM, episomal 3.2 kb HBV genomes, 24 hours following the 9th day of treatment) was 1.7 pg/µg CELL DNA and 1.4 pg/µg CELL DNA, the “INT[…] DNA RI” value (HBV; 4 µM, 24 hours following the 9th day of treatment) was 1 pg/µg CELL DNA and 2 pg/µg CELL DNA and the “inhibition of the replication of HBV” value (HBV) was “significantly inhibited”.
For Nc1nc(=O)n([C@@H]2CS[C@H](CO)O2)cc1C(F)(F)F [DLS-053], the CC50 [1] was > 100 µM.
In the case of CCCC(=O)OC[C@@H]1O[C@H](n2cc(F)c(N)nc2=O)CS1 (racemic) [5'-O-butyrate ester of (±)-FTC], the pEC50 (HIV) was 7.40 and the pEC50 (HIV-1 (strain LAV)) was 8.77.
With Nc1nc(=O)n([C@H]2CS[C@@H](CO)O2)cc1Br [DLS-021] the CC50 [1] was > 100 µM.
With Nc1nc(=O)n([C@H]2CS[C@@H](CO)O2)cc1F [(+)-FTC, (+)-β-D-2-hydroxymethyl-5-(5-fluorocytosin-1-yl)-1,3-oxathiolane] the “toxicity at the highest concentration used for the toxicity tests” value (2.2.15 cells) was “appeared to be toxic”, the viability at 10 µM [2, 5] was 90.9% and the viability at 10 µM [2, 6] was 90.5%. It also gave a viability at 10 µM [2, 7] of 99.4%, a viability at 30 µM [2, 5] of 81.1% and a viability at 30 µM [2, 6] of 88.1%. For the same compound, the viability at 30 µM [2, 7] was 88.3%, the viability at 100 µM [2, 5] was 77.7% and the viability at 100 µM [2, 6] was 72.1%. The viability at 100 µM [2, 7] was 66.3%, the viability at 300 µM [2, 5] was 43.4% and the viability at 300 µM [2, 6] was 58.5%. The viability at 300 µM [2, 7] was 56.7%, the CC50 at 144 h [3] was > 100 µM and the inhibition at 0.001 µM (HIV-1 (strain LAV)) was 3.8%. It also gave an inhibition at 0.005 µM (HIV-1 (strain LAV)) of -10.6%, an inhibition at 0.01 µM (HIV-1 (strain LAV)) of -1.8% and an inhibition at 0.05 µM (HIV-1 (strain LAV)) of 11.8%. The inhibition at 0.1 µM (HIV-1 (strain LAV)) was 12.7%, the inhibition at 0.5 µM (HIV-1 (strain LAV)) was 71.4% and the pEC50 (HIV-1 (strain LAV); read-out: Antiviral EC50) was 6.08. The pEC50 (HIV-1 (strain LAV); read-out: EC50) was 6.08, the EC50 (HIV-1 (strain LAV)) was 0.28 µM and the pEC50 (HIV-2) was 7.59. The “HBV VIRION DNA DAY 0” value (HBV; 10 µM, replicate wells) was 58 pg/ml Culture Medium, the “HBV Virion DNA DAY 9” value (HBV; 10 µM, day 9, sensitivity cutoff 0.1 pg/ml, replicate wells) was 0.1 pg/ml Culture Medium and the “inhibition of the replication of HBV” value (HBV) was “significantly inhibited”.
For O=c1[nH]c(=O)n([C@H]2CS[C@@H](CO)O2)cc1Cl [DLS-028], the CC50 [1] was > 100 µM.
With Nc1nc(=O)n([C@H]2CS[C@@H](CO)O2)cc1I [DLS-026] the CC50 [1] was > 100 µM.
